Test results reported in patent US20230416329A1, “A PEPTIDE WITH DISULFIDE BONDS AND INHIBITORY ACTIVITY AGAINST SERINE PROTEASES, DERIVED HYBRID PEPTIDES THEREOF, AND USES THEREOF” (INSTITUTE OF MATERIA MEDICA , CHINESE ACADEMY OF MEDICAL …, priority 2020, published 2023).

Key:
trypsin = target: T1, trypsin (Bos taurus, UniProt P00760); test: in vitro; conditions: isolated enzyme trypsin, pH 7.8
T1 sequence (P00760 24-246): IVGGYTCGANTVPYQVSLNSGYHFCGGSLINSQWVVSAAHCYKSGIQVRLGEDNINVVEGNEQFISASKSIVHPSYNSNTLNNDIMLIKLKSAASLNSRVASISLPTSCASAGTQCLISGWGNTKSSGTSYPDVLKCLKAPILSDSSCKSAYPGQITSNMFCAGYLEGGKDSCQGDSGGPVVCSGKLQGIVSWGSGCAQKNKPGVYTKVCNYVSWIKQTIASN
Outline: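 Peptides were preincubated for 5 min at 37 °C and then digested with 0.05 μg/μL trypsin solution (stock). Remaining intact peptide was quantified as RP-HPLC peak area.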

chymotrypsin = chymotrypsin (Bos taurus, UniProt P00766); test: in vitro; conditions: isolated enzyme chymotrypsin, pH 7.8, Remaining peak area (%)/chymotrypsin
Outline: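 Peptide and 0.05 μg/μL chymotrypsin were preincubated at 37 °C for 5 min, then mixed. Aliquots taken from 1.5 up to 60.0 min were quenched with 10% TFA, and remaining peptide was measured as RP-HPLC peak area.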

[1] = Stability of GLP-1 and its analogues in human serum; conditions: 25% (v/v) human serum
Experimental: The amount of the prototype peptide at 0 h was taken as 100%. At different time point, 100 μL aliquots was taken out, and 300 μL precooled anhydrous methanol was added to terminate the reaction. The remaining percentage (%) of the peptide relative to the prototype peptide at that time point was analyzed by reverse phase high performance liquid chromatography. The experiment was performed with three replicates, and data were expressed as “mean±standard deviation”. The sample was subjected to high-speed centrifugation, supernatant extraction, and freeze drying, followed by dissolution in 50% (v/v) methanol/water solution, and analyzed by reverse phase high performance liquid chromatography. The experiment was performed with three replicates, and data were expressed as “mean±standard deviation”.
Invert and mix thoroughly, then leave at −20° C. overnight. At the same time, take three sterile EP tubes and add 25 μL of human serum, 75 μL of 50 mM Tris-HCl buffer (pH7.0), and 300 μL of pre-cold absolute methanol. Invert and mix thoroughly, then leave at −20° C. overnight as a negative control, so as to eliminate the interference of proteins or peptides contained in human serum at the peak time of the target peptide after methanol precipitation.
Arrange a certain volume of human serum in another sterile EP. Incubate the EP tubes containing peptides and serum at 37° C. for 10 min, and add 137.5 μL of human serum to each EP tube containing peptides and mix well. […] Start timing and remove 100 μL of reaction solution at 0.5, 2.0, 4.0, 8.0, and 12.0 h later, respectively. Add 300 μL of pre-cold absolute methanol. Invert and mix thoroughly, then leave at −20° C. overnight. […] There are three replicates at each time point, and the peak area of the peptide at each time point is detected using reverse phase high-performance liquid chromatography (RP-HPLC). The ratio of the remaining peak area of the sample at detection time T (h) to the peak area of the prototype peptide at 0 h is calculated as the remaining percentage (%) of the peptide.

DPP-IV = DPP-IV (Homo sapiens, UniProt P27487); test: Tolerance of GLP-1 and its analogues to DPP-IV (RP-HPLC remaining peak area); assay type: in vitro ADME; conditions: peptide 25 μM, DPP-IV 0.5 ng/μL, 37° C.
Chain of DPP-IV (P27487 whole entry, species assumed): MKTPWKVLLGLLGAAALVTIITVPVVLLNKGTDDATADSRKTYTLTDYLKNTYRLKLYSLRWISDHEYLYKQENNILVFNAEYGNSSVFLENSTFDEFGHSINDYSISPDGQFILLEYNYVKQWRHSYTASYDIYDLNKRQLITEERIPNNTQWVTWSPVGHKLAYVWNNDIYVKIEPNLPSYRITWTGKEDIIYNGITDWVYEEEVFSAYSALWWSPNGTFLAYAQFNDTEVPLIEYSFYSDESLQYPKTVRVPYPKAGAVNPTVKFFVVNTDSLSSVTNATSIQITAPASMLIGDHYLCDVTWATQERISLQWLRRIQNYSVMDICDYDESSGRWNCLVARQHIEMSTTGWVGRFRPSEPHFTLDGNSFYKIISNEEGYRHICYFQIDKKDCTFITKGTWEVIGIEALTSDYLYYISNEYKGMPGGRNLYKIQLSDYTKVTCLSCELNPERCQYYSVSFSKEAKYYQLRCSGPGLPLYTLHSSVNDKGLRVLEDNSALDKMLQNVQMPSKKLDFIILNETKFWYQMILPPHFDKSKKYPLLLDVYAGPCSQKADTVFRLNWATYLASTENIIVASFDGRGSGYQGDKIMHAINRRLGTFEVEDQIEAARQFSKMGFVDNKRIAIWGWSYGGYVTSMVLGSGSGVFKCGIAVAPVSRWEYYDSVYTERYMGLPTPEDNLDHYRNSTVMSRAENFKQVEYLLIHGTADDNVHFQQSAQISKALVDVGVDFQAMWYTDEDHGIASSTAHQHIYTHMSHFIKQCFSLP
Experimental: (§1) Mix by centrifugation at 8000 rpm for 30 seconds.
(2) Arrange a certain volume of 0.005 μg/μL DPP-IV solution in another sterile EP.

NEP24.11 = NEP24.11 (Homo sapiens, UniProt P08473); test: Tolerance of GLP-1 and its analogues to NEP24.11 (RP-HPLC remaining peak area); assay type: in vitro ADME; conditions: peptide 30 μM, NEP24.11 1.0 ng/μL, 37° C.
Chain of NEP24.11 (P08473 whole entry): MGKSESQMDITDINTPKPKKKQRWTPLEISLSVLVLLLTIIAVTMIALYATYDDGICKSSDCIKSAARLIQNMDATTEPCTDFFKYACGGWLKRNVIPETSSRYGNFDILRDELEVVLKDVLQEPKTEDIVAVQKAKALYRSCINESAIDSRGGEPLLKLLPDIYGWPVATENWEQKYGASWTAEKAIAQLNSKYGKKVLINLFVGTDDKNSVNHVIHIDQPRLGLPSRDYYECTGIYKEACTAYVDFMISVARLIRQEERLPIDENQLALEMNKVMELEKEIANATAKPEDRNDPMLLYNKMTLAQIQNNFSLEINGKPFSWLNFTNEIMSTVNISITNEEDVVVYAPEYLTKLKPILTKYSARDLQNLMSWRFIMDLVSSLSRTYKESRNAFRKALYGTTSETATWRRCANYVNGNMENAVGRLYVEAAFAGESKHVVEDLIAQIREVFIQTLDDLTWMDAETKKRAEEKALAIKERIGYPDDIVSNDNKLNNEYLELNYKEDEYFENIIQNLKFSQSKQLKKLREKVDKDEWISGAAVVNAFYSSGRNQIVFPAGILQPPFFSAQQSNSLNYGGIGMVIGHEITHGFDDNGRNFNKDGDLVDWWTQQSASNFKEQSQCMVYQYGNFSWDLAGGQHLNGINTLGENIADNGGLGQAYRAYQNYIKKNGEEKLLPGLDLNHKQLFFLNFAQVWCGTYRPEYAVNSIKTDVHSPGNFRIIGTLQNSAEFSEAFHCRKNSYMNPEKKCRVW
Experimental: as §1
Arrange a certain volume of 0.04 μg/μL NEP24.11 enzyme solution in another sterile EP.

`CC[C@H](C)[C@H](NC(=O)[C@H](Cc1ccccc1)NC(=O)[C@H](CCC(=O)O)NC(=O)[C@H](CCCCN)NC(=O)[C@H](C)NC(=O)[C@H](C)NC(=O)[C@H](CCC(N)=O)NC(=O)CNC(=O)[C@H](CCC(=O)O)NC(=O)[C@H](CC(C)C)NC(=O)[C@H](Cc1ccc(O)cc1)NC(=O)[C@H](CO)NC(=O)[C@H](CO)NC(=O)[C@@H](NC(=O)[C@H](CC(=O)O)NC(=O)[C@H](CO)NC(=O)[C@@H](NC(=O)[C@H](Cc1ccccc1)NC(=O)[C@@H](NC(=O)CNC(=O)[C@H](CCC(=O)O)NC(=O)[C@H](C)NC(=O)[C@H](Cc1c[nH]cn1)NC(=O)CNC(=O)CNC(=O)[C@@H](NC(=O)[C@@H]1CCCN1C(=O)[C@@H](NC(=O)CNC(=O)CNC(=O)[C@H](Cc1ccccc1)NC(=O)[C@@H]1CSSC[C@H](N)C(=O)NCC(=O)N[C@@H](CCCNC(=N)N)C(=O)N[C@@H](C)C(=O)N[C@@H]([C@@H](C)O)C(=O)N[C@@H](CCCCN)C(=O)N[C@@H](CO)C(=O)N[C@@H]([C@@H](C)CC)C(=O)N2CCC[C@H]2C(=O)N2CCC[C@H]2C(=O)N[C@@H]([C@@H](C)CC)C(=O)N1)[C@@H](C)CC)[C@@H](C)CC)[C@@H](C)O)[C@@H](C)O)C(C)C)C(=O)N[C@@H](C)C(=O)N[C@@H](Cc1c[nH]c2ccccc12)C(=O)N[C@@H](CC(C)C)C(=O)N[C@H](C(=O)N[C@@H](CCCCN)C(=O)NCC(=O)N[C@@H](CCCNC(=N)N)C(=O)NCC(=O)NCC(=O)N[C@@H](CCCCN)C(=O)O)C(C)C` [BT9-D-GLP-1] gave a remaining at 0.025 h, 60 μM (trypsin) of 76.6 ± 3%, a remaining at 0.05 h, 60 μM (trypsin) of 76.7 ± 9.1% and a remaining at 0.075 h, 60 μM (trypsin) of 77 ± 2.4%. For the same molecule, the remaining at 0.1 h, 60 μM (trypsin) was 79.2 ± 3.1%, the remaining at 0.15 h, 60 μM (trypsin) was 80.2 ± 1% and the remaining at 0.25 h, 60 μM (trypsin) was 79.1 ± 2.2%. For the same molecule, the remaining at 0.5 h, 60 μM (trypsin) was 75.8 ± 3.8%, the remaining at 1 h, 60 μM (trypsin) was 77.7 ± 0.5% and the remaining at 0.025 h, 60 μM (chymotrypsin) was 54.9 ± 6.6%. The remaining at 0.075 h, 60 μM (chymotrypsin) was 28.7 ± 2.4%, the remaining at 0.1 h, 60 μM (chymotrypsin) was 19.2 ± 1.3% and the remaining at 0.15 h, 60 μM (chymotrypsin) was 9 ± 0.9%. The “Remaining peak area (%)/human serum” value ([1]; 0.0 h, peptide 0.03 mM, 37° C.) was 100.0 ± 0.0%, the “serum stability (in words)” value [1] was “good serum stability” and the remaining at 0.5 h, 0.03 mM ([1]; human, pH 7) was 65.6 ± 14.7%. It also gave a remaining at 2 h, 0.03 mM ([1]; human, pH 7) of 38.5 ± 13.3%, a remaining at 4 h, 0.03 mM ([1]; human, pH 7) of 28% and a remaining at 8 h, 0.03 mM ([1]; human, pH 7) of 13.7%. For the same molecule, the remaining at 12 h, 0.03 mM ([1]; human, pH 7) was 19.6 ± 1.2%, the “Remaining peak area (%)/DPP-IV” value (DPP-IV; 0.0 h) was 100.0 ± 0.0% and the remaining at 0.5 h, 25 μM (DPP-IV; isolated DPP-IV enzyme in buffer, pH 8, 0.5 h) was 81.1 ± 1%. The remaining at 2 h, 25 μM (DPP-IV; isolated DPP-IV enzyme in buffer, pH 8, 2.0 h) was 77.9 ± 2.9%, the remaining at 4 h, 25 μM (DPP-IV; isolated DPP-IV enzyme in buffer, pH 8, 4.0 h) was 79.1 ± 1.3% and the remaining at 8 h, 25 μM (DPP-IV; isolated DPP-IV enzyme in buffer, pH 8, 8.0 h) was 78.8 ± 0.6%. The remaining at 12 h, 25 μM (DPP-IV; isolated DPP-IV enzyme in buffer, pH 8, 12.0 h) was 72.4 ± 1.9%, the “Remaining peak area (%)/NEP24.11” value (NEP24.11; 0.0 h) was 100.0 ± 0.0% and the remaining at 0.5 h, 30 μM (NEP24.11; isolated NEP24.11 enzyme in buffer, pH 7.4, 0.5 h) was 79.8 ± 3.5%. The remaining at 2 h, 30 μM (NEP24.11; isolated NEP24.11 enzyme in buffer, pH 7.4, 2.0 h) was 60.2 ± 1.8%, the remaining at 4 h, 30 μM (NEP24.11; isolated NEP24.11 enzyme in buffer, pH 7.4, 4.0 h) was 56.1 ± 3.4% and the remaining at 8 h, 30 μM (NEP24.11; isolated NEP24.11 enzyme in buffer, pH 7.4, 8.0 h, read-out: Remaining peak area (%)/NEP24.11) was 48.4 ± 1.4%.
